Measurements reported in ChEMBL document CHEMBL3112496, “C1,C2-ether derivatives of the Amaryllidaceae alkaloid lycorine: retention of activity of highly lipophilic analogues against cancer cells” (Bioorg Med Chem Lett, 2014).

How the values were obtained:
B16-F10 = test: Growth inhibition of mouse B16F10 cells by MTT assay; assay type: functional
[1] = Growth inhibition of human Hs683 cells by MTT assay; assay type: functional; settings: Hs 683
SK-MEL-28 = test: Growth inhibition of human SK-MEL-28 cells by MTT assay; assay type: functional
T98G = test: Growth inhibition of human T98G cells by MTT assay; assay type: functional
MCF7 = test: Growth inhibition of human MCF7 cells by MTT assay; assay type: functional
A549 = test: Growth inhibition of human A549 cells by MTT assay; assay type: functional
[2] = Lipophilicity, log P of the compound; assay type: physicochemical; settings: octanol/water

GI50 (B16-F10)	GI50 (SK-MEL-28)	GI50 (MCF7)	GI50 (A549)	Compound	GI50 [1]	GI50 (T98G)	logP [2]
34 µM	59 µM	82 µM	54 µM	C=Cc1cccc2c1N(C)Cc1cc3c(cc1-2)OCO3	> 100 µM	89 µM	–
7.6 µM	28 µM	27 µM	19 µM	C#CCCCO[C@H]1[C@H]2c3cc4c(cc3CN3CCC(=C[C@@H]1O[Si](C(C)C)(C(C)C)C(C)C)[C@H]23)OCO4	33 µM	21 µM	–
18 µM	35 µM	17 µM	4 µM	CCO[C@H]1[C@H]2c3cc4c(cc3CN3CCC(=C[C@@H]1OCC)[C@H]23)OCO4	5.9 µM	8.1 µM	–
13 µM	19 µM	19 µM	4.9 µM	CCCO[C@H]1[C@H]2c3cc4c(cc3CN3CCC(=C[C@@H]1OCCC)[C@H]23)OCO4	8.1 µM	24 µM	–
4.2 µM	8.7 µM	4.2 µM	5.5 µM	C1=C2CCN3Cc4cc5c(cc4[C@H]([C@H](OC/C=C/c4ccccc4)[C@H]1OC/C=C/c1ccccc1)[C@@H]23)OCO5	11 µM	22 µM	–
4.2 µM	14 µM	3.8 µM	1.5 µM	O[C@H]1[C@H]2c3cc4c(cc3CN3CCC(=C[C@@H]1OC/C=C/c1ccccc1)[C@H]23)OCO4	8.6 µM	10 µM	–
28 µM	52 µM	32 µM	23 µM	C#CCO[C@H]1[C@H]2c3cc4c(cc3CN3CCC(=C[C@@H]1OCC#C)[C@H]23)OCO4	27 µM	68 µM	–
42 µM	> 100 µM	> 100 µM	48 µM	C#CCO[C@H]1C=C2CCN3Cc4cc5c(cc4[C@H]([C@@H]1O)[C@@H]23)OCO5	81 µM	> 100 µM	–
5.3 µM	10 µM	9.5 µM	4.4 µM	CC(C)=CCO[C@H]1[C@H]2c3cc4c(cc3CN3CCC(=C[C@@H]1OCC=C(C)C)[C@H]23)OCO4	9.7 µM	24 µM	–
27 µM	33 µM	28 µM	4.2 µM	C1=C2CCN3Cc4cc5c(cc4[C@H]([C@H](OCC4CC4)[C@H]1OCC1CC1)[C@@H]23)OCO5	23 µM	37 µM	1.19
8 µM	22 µM	25 µM	5.7 µM	C1=C2CCN3Cc4cc5c(cc4[C@H]([C@H](OCC4CCC4)[C@H]1OCC1CCC1)[C@@H]23)OCO5	14 µM	18 µM	–
22 µM	41 µM	37 µM	27 µM	O[C@H]1[C@H]2c3cc4c(cc3CN3CCC(=C[C@@H]1OCC1CCC1)[C@H]23)OCO4	50 µM	50 µM	–
8.9 µM	28 µM	28 µM	19 µM	CO[C@H]1[C@H]2c3cc4c(cc3CN3CCC(=C[C@@H]1O[Si](C(C)C)(C(C)C)C(C)C)[C@H]23)OCO4	41 µM	19 µM	–
39 µM	> 100 µM	> 100 µM	43 µM	CO[C@H]1[C@H]2c3cc4c(cc3CN3CCC(=C[C@@H]1O)[C@H]23)OCO4	> 100 µM	64 µM	–
38 µM	68 µM	44 µM	29 µM	COCCO[C@H]1[C@H]2c3cc4c(cc3CN3CCC(=C[C@@H]1OCCOC)[C@H]23)OCO4	> 100 µM	33 µM	–
40 µM	91 µM	74 µM	26 µM	COCCO[C@H]1C=C2CCN3Cc4cc5c(cc4[C@H]([C@@H]1O)[C@@H]23)OCO5	> 100 µM	47 µM	–
51 µM	> 100 µM	70 µM	60 µM	CSCO[C@H]1C=C2CCN3Cc4cc5c(cc4[C@H]([C@@H]1O)[C@@H]23)OCO5	86 µM	> 100 µM	–
31 µM	78 µM	55 µM	33 µM	COCO[C@H]1[C@H]2c3cc4c(cc3CN3CCC(=C[C@@H]1OCOC)[C@H]23)OCO4	> 100 µM	53 µM	–

GI50 (B16-F10)	GI50 (SK-MEL-28)	GI50 (MCF7)	GI50 (A549)	Compound	GI50 [1]	GI50 (T98G)	logP [2]
55 µM	85 µM	85 µM	35 µM	COCO[C@H]1C=C2CCN3Cc4cc5c(cc4[C@H]([C@@H]1O)[C@@H]23)OCO5	> 100 µM	48 µM	–
70 µM	70 µM	77 µM	39 µM	C1=C2CCN3Cc4cc5c(cc4[C@H]([C@H](OC[C@@H]4CO4)[C@H]1OC[C@@H]1CO1)[C@@H]23)OCO5	44 µM	44 µM	–
51 µM	> 100 µM	> 100 µM	54 µM	O[C@H]1[C@H]2c3cc4c(cc3CN3CCC(=C[C@@H]1OC[C@@H]1CO1)[C@H]23)OCO4	> 100 µM	49 µM	–
85 µM	> 100 µM	88 µM	72 µM	C1=C2CCN3Cc4cc5c(cc4[C@H]([C@H](OCc4cccnc4)[C@H]1OCc1cccnc1)[C@@H]23)OCO5	> 100 µM	87 µM	–
66 µM	81 µM	80 µM	40 µM	O[C@H]1[C@H]2c3cc4c(cc3CN3CCC(=C[C@@H]1OCc1cccnc1)[C@H]23)OCO4	> 100 µM	75 µM	–
21 µM	42 µM	7.7 µM	11 µM	C=CCCO[C@H]1C=C2CCN3Cc4cc5c(cc4[C@H]([C@@H]1O)[C@@H]23)OCO5	67 µM	39 µM	–
17 µM	25 µM	22 µM	1.3 µM	C#CCCCO[C@H]1[C@H]2c3cc4c(cc3CN3CCC(=C[C@@H]1OCCCC#C)[C@H]23)OCO4	32 µM	7.1 µM	–
2.6 µM	19 µM	21 µM	0.6 µM	C#CCCCO[C@H]1C=C2CCN3Cc4cc5c(cc4[C@H]([C@@H]1O)[C@@H]23)OCO5	69 µM	4.2 µM	–
10 µM	16 µM	16 µM	2.8 µM	C#CCCCCO[C@H]1[C@H]2c3cc4c(cc3CN3CCC(=C[C@@H]1OCCCCC#C)[C@H]23)OCO4	29 µM	6.8 µM	–
34 µM	49 µM	32 µM	11 µM	C#CCCCCO[C@H]1C=C2CCN3Cc4cc5c(cc4[C@H]([C@@H]1O)[C@@H]23)OCO5	55 µM	34 µM	–
9.5 µM	24 µM	23 µM	15 µM	CC(C)[Si](O[C@H]1[C@H]2c3cc4c(cc3CN3CCC(=C[C@@H]1O)[C@H]23)OCO4)(C(C)C)C(C)C	24 µM	20 µM	–
9 µM	32 µM	31 µM	5.9 µM	C#CCCCO[C@H]1C=C2CCN3Cc4cc5c(cc4[C@H]([C@@H]1O[Si](C(C)C)(C(C)C)C(C)C)[C@@H]23)OCO5	40 µM	16 µM	–
8.7 µM	25 µM	19 µM	4.2 µM	C#CCCCCO[C@H]1C=C2CCN3Cc4cc5c(cc4[C@H]([C@@H]1O[Si](C(C)C)(C(C)C)C(C)C)[C@@H]23)OCO5	23 µM	13 µM	–
6.4 µM	26 µM	28 µM	21 µM	C#CCCCCO[C@H]1[C@H]2c3cc4c(cc3CN3CCC(=C[C@@H]1O[Si](C(C)C)(C(C)C)C(C)C)[C@H]23)OCO4	35 µM	24 µM	–
0.8 µM	2.4 µM	5 µM	4.5 µM	C=CCO[C@H]1[C@H]2c3cc4c(cc3CN3CCC(=C[C@@H]1O[Si](C(C)C)(C(C)C)C(C)C)[C@H]23)OCO4	7.6 µM	6.6 µM	–
6.2 µM	8.2 µM	8.3 µM	3.6 µM	C#CCO[C@H]1[C@H]2c3cc4c(cc3CN3CCC(=C[C@@H]1O[Si](C(C)C)(C(C)C)C(C)C)[C@H]23)OCO4	27 µM	4.9 µM	–
40 µM	92 µM	> 100 µM	31 µM	CO[C@H]1C=C2CCN3Cc4cc5c(cc4[C@H]([C@@H]1O)[C@@H]23)OCO5 [HIPPPAMINE]	36 µM	84 µM	–

Compound	GI50 (B16-F10)	GI50 (SK-MEL-28)	GI50 (MCF7)	GI50 (A549)	GI50 [1]	GI50 (T98G)	logP [2]
O[C@H]1[C@H]2c3cc4c(cc3CN3CCC(=C[C@@H]1O)[C@H]23)OCO4 [LYCORINE]	2.6 µM	3.7 µM	10.9 µM	3 µM	2.1 µM	5.2 µM	-0.78
